Results from BindingDB's records for doi:10.1016/j.bmcl.2006.12.076 (Glaxosmithkline, 2007).

Columns and labels:
[1] = Antagonist activity at human recombinant CCR8 expressed in Th2 cells assessed as I309 mediated migration by chemotaxis assay
[2] = Antagonist activity at human recombinant CCR8 expressed in HUT78 cells assessed as I309-mediated migration by chemotaxis assay

- IC50 [1]: 100 nM
- IC50 [2]: 501 nM
Compound: COc1ccc2nccc([C@@H]3CN(C4CCN(Cc5cc6ccccc6[nH]5)CC4)C(=O)O3)c2c1 [SB-649701]
